Test results taken from US20260014204A1, “STEM CELL-DRUG CARRIER COMPRISING MELATONIN-CONTAINING DRUG CARRIER AND STEM CELL AND USES THEREOF” (priority 2024, published 2026).

Test system: small intestine epithelial organoids
Experiment: Flow cytometry of Ly6a-expressing cells, comparison by drug type
Assay type: cell-based
Conditions: drug applied together with stem cells (summary statement)
Method: In the art, quercetin is known as a therapeutic agent for inflammatory bowel disease. Accordingly, in Example 4, the revival stem cell induction ability of heterospheroids (hereinafter referred to as ‘Mel-HS’) including melatonin microspheres and 3D mesenchymal stem cells prepared in Example 1-1; and heterospheroids (hereinafter referred to as ‘Q-HS’) including quercetin microspheres and 3D mesenchymal stem cells was compared. The Q-HS was prepared by the same method as Example 1-1, but using quercetin instead of melatonin. Mel-HS was treated in small intestine epithelial organoids and then co-cultured for 48 hours. After culturing, cells expressing a revival stem cell marker Ly6a of the small intestine epithelial organoids were analyzed by flow cytometry. In addition, a Q-HS-treated group was also performed in the same manner as described above. As a control group for the experiment, 2D mesenchymal stem cells (2D) or 3D mesenchymal stem cells (3D) were treated. The flow cytometry results of the Mel-HS-treated group were shown in FIG. 4A, and the flow cytometry results of the Q-HS-treated group were shown in FIG. 4B.

| SMILES | induction of revival stem cells |
| --- | --- |
| O=c1c(O)c(-c2ccc(O)c(O)c2)oc2cc(O)cc(O)c12 [quercetin] | no significant effect |
| COc1ccc2[nH]cc(CCNC(C)=O)c2c1 [melatonin] | induced revival stem cells |
